In brackets after ≈: the same amount, converted by molar mass. Where two headings read alike, the source gives them in different places. Bridge positions count the residues as written; N and C are the ends. Square brackets hold non-standard residues; d marks the D form. Peptide text beside a SMILES is read from it. * marks the point of attachment. Trp(7-Me) = Cc1cccc2c(C[C@H](N)C(=O)O)c[nH]c12; 2Nal = N[C@@H](Cc1ccc2ccccc2c1)C(=O)O; d2Nal = N[C@H](Cc1ccc2ccccc2c1)C(=O)O; C12 diacid = O=C(O)CCCCCCCCCCC(=O)*; 3Pal = N[C@@H](Cc1cccnc1)C(=O)O; Aun = NCCCCCCCCCCC(=O)O; Thp = NC1(C(=O)O)CCOCC1; Me2NCH2CH2 = CN(C)CC*; Aib = CC(C)(N)C(=O)O; Sar = CNCC(=O)O

Series [1] is described as follows: Solubility of peptide compounds in buffer formulations (Table 5). Type of series: physicochemical. The following applies: target 1 mg/ml. An outline of the steps:
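Peptide solids, dried from DMSO stock, were taken up at 1 mg/mL in 50 mM HCl pH 1.2, or 50 mM phosphate pH 6.5 or pH 7.4. After 2 h gentle agitation and filtration (0.45 μm), solubility was determined by UHPLC-UV peak area against a DMSO standard of known concentration.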

A short description of series [2]: Protease stability in simulated intestinal fluids (FaSSIF) (Table 7). It counts as in vitro ADME. Conditions: fassif with pancreatin, 37° C.; for remaining at 1 h, 1 µM: 60 min, read-out: Remaining percentage of peptide compound, FaSSIF 60 (min); for remaining at 2 h, 1 µM: 120 min, read-out: Remaining percentage of peptide compound, FaSSIF 120 (min); for remaining at 4 h, 1 µM: 240 min, read-out: Remaining percentage of peptide compound, FaSSIF 240 (min). An outline of the steps:
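1 μM peptide incubated at 37° C in simulated fluid (pancreatin-SIF prepared from pancreatin in SIF concentrate). Samples quenched with acidified ethanol at 0, 60, 120 and 240 min and analysed by LC-MS/MS. Percentage remaining from peak area relative to T0 (100%).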

Series [3] deals with IL-23 induced STAT3 signaling (IL-23 receptor) in HEK-Blue IL-23 cells. Description: Inhibition of IL-23 induced STAT3 signaling in HEK-Blue IL-23 cells, SEAP reporter (Table 9). It counts as cell-based. The following applies: human IL23 0.25 ng/ml, overnight, read-out: Inhibition of IL-23 induced pSTAT3 (IC50 nM). An outline of the steps:
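HEK-Blue IL-23 reporter cells (10,000/well) pre-incubated 60 min at 37 °C with serially diluted peptides, then stimulated overnight with human IL-23 at 0.25 ng/ml final. SEAP in supernatant read by QUANTI-Blue, 45 min room temperature, OD 620–655 nm; dose-response curve fitting.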

Series [4] can be described thus: Protease stability in simulated gastric fluids (FaSSGF) (Table 7). Conditions: fassgf with pepsin, 60 min, 37° C., read-out: Remaining percentage of peptide compound, FaSSGF 60 (min). It counts as in vitro ADME. The procedure, abridged:
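Peptides at 1 μM final were incubated at 37 °C in simulated gastric fluid with pepsin (320 mg per 100 mL SGF concentrate). Samples were quenched with ethanol (0.1% HCOOH) at 0, 60, 120 and 240 min and analysed by LC-MS/MS. Percent remaining is the peak area relative to T0 (100%).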

The mark [5] stands for this setting: Buffer pH 1.1 (head; method: 50 mM HCl pH 1.2), 2 h agitation, read-out: Solubility, Buffer pH 1.1.
Where [6] appears, read: aqueous buffer, 50 mM phosphate buffer pH 6.5, 2 h agitation, read-out: Solubility, Buffer pH 6.5.
[7] abbreviates: aqueous buffer, 50 mM phosphate buffer pH 7.4, 2 h agitation, read-out: Solubility, Buffer pH 7.4.

Broadly, the solubility is how much of the substance goes into solution per volume. The fraction remaining is what is left of the initial amount, in per cent. As usually defined, the IC50 is the concentration needed to halve the response being measured. Turning to `Cc1cccc2c(C[C@@H]3NC(=O)CCCCCCCCCCNC(=O)CC[C@@H](C(=O)N[C@@H](CC(N)=O)C(=O)N[C@@H](Cc4cccnc4)C(=O)N(C)CC(N)=O)NC(=O)C(C)(C)NC(=O)[C@H](Cc4ccc5ccccc5c4)NC(=O)[C@H](Cc4ccc(OCCN(C)C)cc4)NC(=O)C4(CCOCC4)NC(=O)[C@H](CC(C)C)NC3=O)c[nH]c12` [compound 7] ([Aun][Trp(7-Me)]L[Thp]Y(Me2NCH2CH2)[2Nal][Aib]EN[3Pal][Sar]-NH2; lactam N-8), the solubility at 2 h in series [1] (setting [5]) is 20 µg/mL (≈ 12.5 µM); in series [1] (setting [6]) it was under 10 µg/mL; in series [1] (setting [7]), under 10 µg/mL. Besides, the results for the share remaining at 1 h, 1 µM in series [2] and in series [4] were 80% and 6%, respectively. In addition, the amount remaining at 2 h, 1 µM in series [2] was 81%. Besides, in series [2], the amount remaining at 4 h, 1 µM was 82%. Also, the IC50 in series [3] stood at 1.73 nM.

Turning to `Cc1cccc2c(C[C@@H]3NC(=O)CCCCCCCCCCNC(=O)CC[C@@H](C(=O)N[C@@H](CC(N)=O)C(=O)N[C@@H](Cc4cccnc4)C(=O)N(C)CC(N)=O)NC(=O)C(C)(C)NC(=O)[C@@H](Cc4ccc5ccccc5c4)NC(=O)[C@H](Cc4ccc(OCCN(C)C)cc4)NC(=O)C4(CCOCC4)NC(=O)[C@H](CCC(N)=O)NC3=O)c[nH]c12` [compound 4] ([Aun][Trp(7-Me)]Q[Thp]Y(Me2NCH2CH2)[d2Nal][Aib]EN[3Pal][Sar]-NH2; lactam N-8), the solubility at 2 h in series [1] (setting [5]) was at least 970 µg/mL; in series [1] (setting [6]), 270 µg/mL (≈ 167 µM); in series [1] (setting [7]), 60 µg/mL (≈ 37.1 µM). In addition, the results for the fraction remaining at 1 h, 1 µM in series [2] and in series [4] were 90% and 80%, respectively. Moreover, the fraction remaining at 2 h, 1 µM in series [2] was 87%. Also, the share remaining at 4 h, 1 µM in series [2] is 82%. Also, the half-inhibitory concentration (IC50) in series [3] was 0.14 nM.

For `Cc1cccc2c(C[C@@H]3NC(=O)CCCCCCCCCCC(=O)NCCCC[C@@H](C(=O)N[C@@H](CC(N)=O)C(=O)N[C@@H](Cc4cccnc4)C(=O)N(C)CC(N)=O)NC(=O)C(C)(C)NC(=O)[C@H](Cc4ccc5ccccc5c4)NC(=O)[C@H](Cc4ccc(OCCN(C)C)cc4)NC(=O)C4(CCOCC4)NC(=O)[C@H](CCC(N)=O)NC3=O)c[nH]c12` [compound 10] ([Trp(7-Me)]Q[Thp]Y(Me2NCH2CH2)[2Nal][Aib]KN[3Pal][Sar]-NH2; linker N-7 via C12 diacid), the solubility at 2 h in series [1] (setting [5]) was at least 890 µg/mL; in series [1] (setting [6]), 240 µg/mL (≈ 146 µM); in series [1] (setting [7]) it was 70 µg/mL (≈ 42.6 µM). The share remaining at 1 h, 1 µM in series [2] was 79%; in series [4], 88%. The fraction remaining at 2 h, 1 µM in series [2] is 78%. Besides, the share remaining at 4 h, 1 µM in series [2] was 77%. Further, the IC50 in series [3] worked out at 0.35 nM.

Values taken from patent publication US20260297129A1, “PEPTIDES AS SELECTIVE IL-23 RECEPTOR INHIBITORS” (SANOFI, priority 2023, published 2026).
